Experimental data reported in patent publication US12275731B2, “Azaindole inhibitors of wild-type and mutant forms of LRRK2” (DANA-FARBER CANCER INSTITUTE, INC., priority 2018, dated 2025).

Key:
Assay in all cases: KinomeScan profiling
Type in all cases: binding
[1] = molecular target: T1, ABL1(Q252H)-nonphosphorylated (Homo sapiens, UniProt P00519, Q252H); settings: read-out: % control
T1 construct: purchased KinomeScan®
Description: (§1) The kinase selectivity of inventive compounds 77, 96 and 101 was evaluated by KinomeScan®. KinomeScan® analysis was performed against a near comprehensive panel of 468 kinases. The control percentage (% control) for inventive compounds at 1 μM in DMSO was determined by Equation 1: % control=(inventive compound−positive control)/(negative control−positive control)×100%, Equation 1
(§2) wherein the positive control is a compound with a % control value of 0% relative light units (RLU), and the negative control (i.e., DMSO) has % control value of 100% RLU. The enzyme selectivity in the present invention is defined as follows: inventive compounds are considered active for an enzyme when the observed % control is less than 35% (<35%).

[2] = molecular target: T2, EPHB1 (Homo sapiens, UniProt P54762); settings: EPHB1, 1 μM; read-out: % control
T2 sequence (P54762 18-984): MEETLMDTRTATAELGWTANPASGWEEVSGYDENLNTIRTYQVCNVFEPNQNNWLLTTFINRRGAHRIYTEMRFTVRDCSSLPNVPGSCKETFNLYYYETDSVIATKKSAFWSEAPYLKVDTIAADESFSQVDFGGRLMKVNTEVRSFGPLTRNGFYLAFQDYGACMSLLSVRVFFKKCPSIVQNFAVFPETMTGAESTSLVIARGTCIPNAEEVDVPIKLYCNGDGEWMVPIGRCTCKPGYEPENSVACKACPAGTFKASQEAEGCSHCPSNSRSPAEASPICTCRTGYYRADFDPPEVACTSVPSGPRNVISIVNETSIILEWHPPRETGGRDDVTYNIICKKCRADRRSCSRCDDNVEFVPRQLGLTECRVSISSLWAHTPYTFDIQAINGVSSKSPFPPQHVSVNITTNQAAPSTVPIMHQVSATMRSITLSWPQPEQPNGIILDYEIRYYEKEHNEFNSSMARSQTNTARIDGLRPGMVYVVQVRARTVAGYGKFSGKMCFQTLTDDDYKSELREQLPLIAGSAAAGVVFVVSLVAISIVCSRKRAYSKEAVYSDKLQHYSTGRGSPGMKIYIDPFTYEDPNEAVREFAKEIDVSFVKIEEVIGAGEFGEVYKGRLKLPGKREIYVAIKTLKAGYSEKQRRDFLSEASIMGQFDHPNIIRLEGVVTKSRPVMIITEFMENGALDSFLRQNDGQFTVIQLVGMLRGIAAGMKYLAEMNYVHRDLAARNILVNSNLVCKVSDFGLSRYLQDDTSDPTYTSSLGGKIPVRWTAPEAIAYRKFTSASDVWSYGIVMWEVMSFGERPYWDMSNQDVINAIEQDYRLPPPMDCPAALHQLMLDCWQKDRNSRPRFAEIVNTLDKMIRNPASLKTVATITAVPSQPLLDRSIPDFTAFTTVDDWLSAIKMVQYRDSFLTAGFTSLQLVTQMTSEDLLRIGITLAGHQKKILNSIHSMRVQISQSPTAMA
Description: as §1, §2

[3] = molecular target: EPHA4 (Homo sapiens, UniProt P54764); settings: EPHA4, 1 μM; read-out: % control
Description: as §1, §2

[4] = molecular target: CDKL3 (Homo sapiens, UniProt Q8IVW4); settings: CDKL3, 1 μM; read-out: % control
Description: as §1, §2

[5] = molecular target: WEE1 (Homo sapiens, UniProt P30291); settings: WEE1, 1 μM; read-out: % control
Description: as §1, §2

[6] = molecular target: T3, PIK3CA(E542K) (Homo sapiens, UniProt P42336, E542K); settings: read-out: % control
T3 construct: purchased KinomeScan® (panel service)
Description: as §1, §2

[7] = molecular target: DDR1 (Homo sapiens, UniProt Q08345); settings: DDR1, 1 μM; read-out: % control
Description: as §1, §2

[8] = molecular target: ERBB2 (Homo sapiens, UniProt P04626); settings: ERBB2, 1 μM; read-out: % control
Description: as §1, §2

[9] = molecular target: T4, ARK5 (Homo sapiens, UniProt O60285); settings: ARK5, 1 μM; read-out: % control
T4 construct: purchased KinomeScan®
T4 sequence (O60285 1-661): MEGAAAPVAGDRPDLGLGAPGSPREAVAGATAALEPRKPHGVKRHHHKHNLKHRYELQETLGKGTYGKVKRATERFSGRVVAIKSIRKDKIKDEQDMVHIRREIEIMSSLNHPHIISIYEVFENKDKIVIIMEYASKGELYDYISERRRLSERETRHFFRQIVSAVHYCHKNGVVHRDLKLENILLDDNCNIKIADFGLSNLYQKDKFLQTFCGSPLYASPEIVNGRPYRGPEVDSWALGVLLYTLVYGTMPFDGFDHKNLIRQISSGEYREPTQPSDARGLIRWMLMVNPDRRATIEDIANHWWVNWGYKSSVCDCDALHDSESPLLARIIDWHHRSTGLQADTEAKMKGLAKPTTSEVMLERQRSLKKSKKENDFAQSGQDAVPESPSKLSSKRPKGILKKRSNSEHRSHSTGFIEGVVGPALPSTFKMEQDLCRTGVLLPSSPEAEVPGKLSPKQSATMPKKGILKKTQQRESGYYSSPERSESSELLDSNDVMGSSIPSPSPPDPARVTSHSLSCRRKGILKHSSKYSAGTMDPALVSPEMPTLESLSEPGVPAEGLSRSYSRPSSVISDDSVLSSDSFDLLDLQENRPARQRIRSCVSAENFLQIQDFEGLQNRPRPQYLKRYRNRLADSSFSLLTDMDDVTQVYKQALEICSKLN
Description: as §1, §2

[10] = molecular target: PKNB(M. tuberculosis) (Mycobacterium tuberculosis, UniProt P9WI81); settings: read-out: % control
PKNB(M. tuberculosis), sequence (P9WI81 whole entry): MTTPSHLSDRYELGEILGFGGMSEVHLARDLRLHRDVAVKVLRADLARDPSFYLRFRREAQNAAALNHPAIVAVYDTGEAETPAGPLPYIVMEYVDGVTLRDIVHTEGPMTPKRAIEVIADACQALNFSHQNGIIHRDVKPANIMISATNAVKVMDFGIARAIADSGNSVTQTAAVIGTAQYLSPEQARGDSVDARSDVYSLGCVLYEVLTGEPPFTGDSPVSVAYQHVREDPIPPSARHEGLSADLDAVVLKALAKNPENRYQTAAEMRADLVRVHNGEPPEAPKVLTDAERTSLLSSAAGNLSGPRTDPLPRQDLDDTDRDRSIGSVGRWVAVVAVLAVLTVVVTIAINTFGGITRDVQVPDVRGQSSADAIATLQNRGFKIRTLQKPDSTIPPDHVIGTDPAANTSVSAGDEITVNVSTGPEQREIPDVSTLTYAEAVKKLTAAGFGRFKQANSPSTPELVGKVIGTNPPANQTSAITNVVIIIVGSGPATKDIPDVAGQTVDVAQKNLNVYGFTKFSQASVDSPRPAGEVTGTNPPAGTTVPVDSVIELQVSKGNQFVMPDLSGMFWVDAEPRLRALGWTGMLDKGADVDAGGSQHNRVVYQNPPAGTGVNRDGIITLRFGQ

EPHA4, sequence (P54764 20-986): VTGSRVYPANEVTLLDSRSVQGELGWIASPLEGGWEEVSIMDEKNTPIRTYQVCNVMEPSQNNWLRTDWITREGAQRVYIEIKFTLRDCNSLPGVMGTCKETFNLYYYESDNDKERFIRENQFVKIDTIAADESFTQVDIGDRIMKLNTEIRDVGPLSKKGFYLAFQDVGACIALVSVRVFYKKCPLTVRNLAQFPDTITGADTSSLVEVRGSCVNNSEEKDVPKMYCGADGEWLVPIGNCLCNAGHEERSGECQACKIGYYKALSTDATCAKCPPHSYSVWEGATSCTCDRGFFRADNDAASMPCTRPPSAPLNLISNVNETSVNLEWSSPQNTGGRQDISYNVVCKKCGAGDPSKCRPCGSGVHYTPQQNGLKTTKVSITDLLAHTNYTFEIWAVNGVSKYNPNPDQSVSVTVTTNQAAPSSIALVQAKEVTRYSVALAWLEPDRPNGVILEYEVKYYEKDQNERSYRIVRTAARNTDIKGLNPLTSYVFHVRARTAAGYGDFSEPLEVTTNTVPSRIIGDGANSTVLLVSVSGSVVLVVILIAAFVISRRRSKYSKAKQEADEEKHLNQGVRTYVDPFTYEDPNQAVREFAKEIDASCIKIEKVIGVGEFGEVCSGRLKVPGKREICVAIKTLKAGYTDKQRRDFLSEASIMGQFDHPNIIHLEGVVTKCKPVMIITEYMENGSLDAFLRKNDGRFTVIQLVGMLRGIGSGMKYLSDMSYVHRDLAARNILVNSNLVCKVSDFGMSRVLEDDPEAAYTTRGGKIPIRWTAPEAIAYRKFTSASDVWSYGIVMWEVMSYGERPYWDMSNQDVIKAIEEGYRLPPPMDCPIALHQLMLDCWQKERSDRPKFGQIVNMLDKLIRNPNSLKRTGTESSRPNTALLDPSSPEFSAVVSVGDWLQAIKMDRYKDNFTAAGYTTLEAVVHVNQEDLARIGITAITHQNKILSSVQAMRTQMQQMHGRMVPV
DDR1, sequence (Q08345 19-913): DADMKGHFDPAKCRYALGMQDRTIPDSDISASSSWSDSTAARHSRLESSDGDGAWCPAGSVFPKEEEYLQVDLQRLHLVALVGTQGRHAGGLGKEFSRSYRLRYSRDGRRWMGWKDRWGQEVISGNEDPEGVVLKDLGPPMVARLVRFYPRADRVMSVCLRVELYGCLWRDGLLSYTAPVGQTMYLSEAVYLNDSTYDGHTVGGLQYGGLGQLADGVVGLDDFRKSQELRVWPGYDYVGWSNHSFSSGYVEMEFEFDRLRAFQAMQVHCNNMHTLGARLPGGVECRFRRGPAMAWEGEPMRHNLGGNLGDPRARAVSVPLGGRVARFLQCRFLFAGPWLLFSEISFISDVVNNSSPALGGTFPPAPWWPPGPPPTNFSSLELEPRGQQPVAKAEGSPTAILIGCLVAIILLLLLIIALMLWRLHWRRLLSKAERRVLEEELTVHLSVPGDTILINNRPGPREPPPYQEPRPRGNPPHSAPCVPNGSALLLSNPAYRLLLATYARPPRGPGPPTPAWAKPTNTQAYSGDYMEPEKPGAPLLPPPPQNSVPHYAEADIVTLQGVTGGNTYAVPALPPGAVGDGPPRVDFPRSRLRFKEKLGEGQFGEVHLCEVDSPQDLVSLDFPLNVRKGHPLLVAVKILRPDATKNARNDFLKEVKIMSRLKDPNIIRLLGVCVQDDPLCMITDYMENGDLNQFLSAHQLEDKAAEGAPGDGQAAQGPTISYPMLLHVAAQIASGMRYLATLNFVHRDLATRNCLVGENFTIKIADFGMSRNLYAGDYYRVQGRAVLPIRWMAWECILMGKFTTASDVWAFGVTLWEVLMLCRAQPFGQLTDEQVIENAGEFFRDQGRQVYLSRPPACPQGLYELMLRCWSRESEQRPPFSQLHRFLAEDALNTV
WEE1, sequence (P30291 whole entry): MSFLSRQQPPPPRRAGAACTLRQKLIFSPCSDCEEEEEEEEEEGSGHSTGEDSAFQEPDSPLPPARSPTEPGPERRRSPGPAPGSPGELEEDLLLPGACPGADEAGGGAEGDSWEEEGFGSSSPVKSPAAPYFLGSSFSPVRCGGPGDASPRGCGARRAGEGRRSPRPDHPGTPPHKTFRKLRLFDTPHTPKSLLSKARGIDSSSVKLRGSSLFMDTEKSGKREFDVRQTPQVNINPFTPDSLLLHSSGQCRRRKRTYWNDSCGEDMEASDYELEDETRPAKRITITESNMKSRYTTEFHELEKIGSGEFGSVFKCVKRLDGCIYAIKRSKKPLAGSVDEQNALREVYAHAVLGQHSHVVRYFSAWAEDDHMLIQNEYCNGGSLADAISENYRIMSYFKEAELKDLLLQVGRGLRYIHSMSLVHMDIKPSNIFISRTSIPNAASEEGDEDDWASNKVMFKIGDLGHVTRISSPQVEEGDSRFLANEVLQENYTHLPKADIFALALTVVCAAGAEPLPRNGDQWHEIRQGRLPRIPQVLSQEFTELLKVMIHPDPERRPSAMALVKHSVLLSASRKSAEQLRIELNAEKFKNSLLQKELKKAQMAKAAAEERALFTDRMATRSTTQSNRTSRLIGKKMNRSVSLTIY
ERBB2, sequence (P04626 23-1255): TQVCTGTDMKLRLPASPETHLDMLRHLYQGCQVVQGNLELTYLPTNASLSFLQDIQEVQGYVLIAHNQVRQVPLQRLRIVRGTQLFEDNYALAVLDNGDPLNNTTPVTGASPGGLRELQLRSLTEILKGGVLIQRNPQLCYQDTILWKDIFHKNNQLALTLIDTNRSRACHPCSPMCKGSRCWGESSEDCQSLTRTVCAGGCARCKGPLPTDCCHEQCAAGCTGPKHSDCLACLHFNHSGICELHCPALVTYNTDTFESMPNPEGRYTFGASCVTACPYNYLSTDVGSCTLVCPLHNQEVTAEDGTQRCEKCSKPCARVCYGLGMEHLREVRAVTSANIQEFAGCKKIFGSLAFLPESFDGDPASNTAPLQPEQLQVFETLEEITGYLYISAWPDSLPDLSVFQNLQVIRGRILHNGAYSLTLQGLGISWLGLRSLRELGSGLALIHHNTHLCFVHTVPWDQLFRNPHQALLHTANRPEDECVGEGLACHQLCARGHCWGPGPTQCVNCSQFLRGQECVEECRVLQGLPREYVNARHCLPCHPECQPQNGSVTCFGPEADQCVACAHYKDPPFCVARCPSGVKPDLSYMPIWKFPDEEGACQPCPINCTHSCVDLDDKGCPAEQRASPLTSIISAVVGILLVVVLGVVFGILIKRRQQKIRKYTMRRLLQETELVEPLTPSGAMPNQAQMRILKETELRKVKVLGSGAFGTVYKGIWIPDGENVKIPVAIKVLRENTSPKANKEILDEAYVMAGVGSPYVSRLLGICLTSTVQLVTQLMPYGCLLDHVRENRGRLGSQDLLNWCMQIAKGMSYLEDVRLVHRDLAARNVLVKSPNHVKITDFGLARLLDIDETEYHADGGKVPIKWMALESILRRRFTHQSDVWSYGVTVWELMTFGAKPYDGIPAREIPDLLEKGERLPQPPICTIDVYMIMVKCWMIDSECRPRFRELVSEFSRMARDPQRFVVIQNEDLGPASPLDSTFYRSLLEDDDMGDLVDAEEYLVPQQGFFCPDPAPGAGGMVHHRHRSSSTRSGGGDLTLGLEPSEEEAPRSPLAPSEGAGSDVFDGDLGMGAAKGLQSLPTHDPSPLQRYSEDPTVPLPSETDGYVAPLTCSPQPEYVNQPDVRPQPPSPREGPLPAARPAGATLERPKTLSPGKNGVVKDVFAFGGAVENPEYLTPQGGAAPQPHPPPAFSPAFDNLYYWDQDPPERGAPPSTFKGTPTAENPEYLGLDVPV
CDKL3, sequence (Q8IVW4 whole entry): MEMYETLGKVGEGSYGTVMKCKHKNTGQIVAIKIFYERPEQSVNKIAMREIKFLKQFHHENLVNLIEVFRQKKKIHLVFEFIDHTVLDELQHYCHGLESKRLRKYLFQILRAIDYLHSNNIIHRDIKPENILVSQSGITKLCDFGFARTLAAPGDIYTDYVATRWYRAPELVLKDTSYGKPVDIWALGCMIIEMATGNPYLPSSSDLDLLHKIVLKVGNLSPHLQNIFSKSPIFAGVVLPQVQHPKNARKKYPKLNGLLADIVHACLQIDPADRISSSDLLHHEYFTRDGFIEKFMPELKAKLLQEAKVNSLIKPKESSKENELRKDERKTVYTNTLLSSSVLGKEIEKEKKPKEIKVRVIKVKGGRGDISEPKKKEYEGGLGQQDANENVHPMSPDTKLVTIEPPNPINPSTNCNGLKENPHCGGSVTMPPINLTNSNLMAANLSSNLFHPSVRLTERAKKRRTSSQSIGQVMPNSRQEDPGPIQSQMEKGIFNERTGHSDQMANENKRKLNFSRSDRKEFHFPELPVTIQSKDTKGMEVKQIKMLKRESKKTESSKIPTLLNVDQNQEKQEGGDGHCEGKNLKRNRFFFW

| Structure (SMILES) | remaining binding at 1 µM [1] | remaining binding at 1 µM [2] | remaining binding at 1 µM [3] | remaining binding at 1 µM [4] | remaining binding at 1 µM [5] | remaining binding at 1 µM [6] | remaining binding at 1 µM [7] | remaining binding at 1 µM [8] | remaining binding at 1 µM [9] | remaining binding at 1 µM [10] |
| --- | --- | --- | --- | --- | --- | --- | --- | --- | --- | --- |
| CNc1c(-c2cnn([C@H]3CCN(C(C)=O)C[C@@H]3F)c2)cnc2[nH]cc(Cl)c12 [Compound 77, 1-((3S,4S)-4-(4-(3-chloro-4-(methylamino)-1H-pyrrolo[2,3-b]pyridin-5-yl)-1H-pyrazol-1-yl)-3-fluoropiperidin-1-yl)ethan-1-one] | 50% | 93% | 96% | 94% | 97% | 100% | 100% | 63% | 86% | 30% |
| O=C(c1ccc(-c2cnc3[nH]cc(Cl)c3c2NC2CCCC2)cc1)N1CCC(N2CCOCC2)CC1 [Compound 101, (4-(3-chloro-4-(cyclopentylamino)-1H-pyrrolo[2,3-b]pyridin-5-yl)phenyl)(4-morpholinopiperidin-1-yl)methanone] | 92% | 95% | 88% | 100% | 100% | 98% | 61% | 92% | 67% | 89% |
| CNc1c(-c2ccc(C(=O)N3CCC(N4CCOCC4)CC3)cc2)cnc2[nH]cc(Cl)c12 [Compound 96, (4-(3-chloro-4-(methylamino)-1H-pyrrolo[2,3-b]pyridin-5-yl)phenyl)(4-morpholinopiperidin-1-yl)methanone] | 64% | 100% | 100% | 100% | 88% | 100% | 100% | 80% | 64% | 61% |
